Test [1] has as its target T1, Progesterone receptor (Oryctolagus cuniculus) (UniProt P06186).
T1 sequence (whole entry): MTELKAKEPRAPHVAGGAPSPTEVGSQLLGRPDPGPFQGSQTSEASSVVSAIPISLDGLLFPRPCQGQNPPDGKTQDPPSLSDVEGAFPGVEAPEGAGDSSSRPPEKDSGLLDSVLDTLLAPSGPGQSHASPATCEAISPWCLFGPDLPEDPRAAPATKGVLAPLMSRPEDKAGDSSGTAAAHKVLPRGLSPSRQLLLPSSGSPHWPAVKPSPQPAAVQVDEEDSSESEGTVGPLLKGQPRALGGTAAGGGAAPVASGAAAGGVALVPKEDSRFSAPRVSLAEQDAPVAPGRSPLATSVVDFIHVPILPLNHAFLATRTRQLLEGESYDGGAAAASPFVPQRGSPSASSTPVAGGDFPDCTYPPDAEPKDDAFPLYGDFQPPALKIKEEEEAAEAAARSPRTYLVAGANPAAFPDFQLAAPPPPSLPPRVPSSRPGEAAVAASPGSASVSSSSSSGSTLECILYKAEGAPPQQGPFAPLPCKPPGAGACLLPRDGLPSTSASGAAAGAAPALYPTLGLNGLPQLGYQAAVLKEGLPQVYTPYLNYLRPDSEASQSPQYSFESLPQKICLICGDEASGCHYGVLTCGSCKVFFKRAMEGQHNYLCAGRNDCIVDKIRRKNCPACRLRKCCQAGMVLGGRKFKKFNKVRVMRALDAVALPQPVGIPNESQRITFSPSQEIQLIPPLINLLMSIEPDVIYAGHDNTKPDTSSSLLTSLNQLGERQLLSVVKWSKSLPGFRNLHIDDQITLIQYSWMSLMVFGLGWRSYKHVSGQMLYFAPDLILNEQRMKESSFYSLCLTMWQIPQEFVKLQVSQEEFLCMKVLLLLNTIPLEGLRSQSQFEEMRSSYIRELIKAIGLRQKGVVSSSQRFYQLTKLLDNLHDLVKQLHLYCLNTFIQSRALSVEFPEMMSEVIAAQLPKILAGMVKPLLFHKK
Briefly: Binding to rabbit uterine progesterone receptor compared to progesterone.

The target in test [2] is T2, Mineralocorticoid receptor (Rattus norvegicus) (UniProt P22199).
T2 sequence (whole entry): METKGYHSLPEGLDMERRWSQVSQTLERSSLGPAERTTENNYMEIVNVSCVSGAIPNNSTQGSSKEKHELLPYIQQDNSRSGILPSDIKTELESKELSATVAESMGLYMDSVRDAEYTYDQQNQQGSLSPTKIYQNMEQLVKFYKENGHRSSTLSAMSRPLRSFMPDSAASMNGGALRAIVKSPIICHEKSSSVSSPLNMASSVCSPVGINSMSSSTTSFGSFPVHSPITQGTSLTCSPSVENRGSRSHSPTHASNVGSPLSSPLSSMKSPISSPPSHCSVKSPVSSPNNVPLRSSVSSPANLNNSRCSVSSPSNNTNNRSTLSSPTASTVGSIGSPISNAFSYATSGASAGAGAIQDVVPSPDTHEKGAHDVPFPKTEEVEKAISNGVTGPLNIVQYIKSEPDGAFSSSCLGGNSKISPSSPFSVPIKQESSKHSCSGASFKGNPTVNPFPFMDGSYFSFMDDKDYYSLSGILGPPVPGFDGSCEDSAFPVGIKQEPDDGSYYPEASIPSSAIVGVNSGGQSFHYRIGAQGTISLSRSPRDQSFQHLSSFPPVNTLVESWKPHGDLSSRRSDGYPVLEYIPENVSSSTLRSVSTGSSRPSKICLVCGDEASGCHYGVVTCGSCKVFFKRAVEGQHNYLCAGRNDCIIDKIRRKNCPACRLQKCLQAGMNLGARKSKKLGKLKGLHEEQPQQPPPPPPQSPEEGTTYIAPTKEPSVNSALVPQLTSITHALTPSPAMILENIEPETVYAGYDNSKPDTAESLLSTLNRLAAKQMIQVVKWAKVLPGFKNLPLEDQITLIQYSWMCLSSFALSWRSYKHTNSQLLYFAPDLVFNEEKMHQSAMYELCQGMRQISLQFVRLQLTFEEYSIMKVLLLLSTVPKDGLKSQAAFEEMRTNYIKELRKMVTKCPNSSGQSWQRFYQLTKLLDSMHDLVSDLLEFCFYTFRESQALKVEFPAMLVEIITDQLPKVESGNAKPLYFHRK
Briefly: Anti-aldosterone effect on the urinary Na/K ratio in Wistar rats compared to spironolactone. The class given is functional. Conditions: Urine.

For test [3], the target named is T3, Androgen receptor (Rattus norvegicus) (UniProt P15207).
T3 sequence (whole entry): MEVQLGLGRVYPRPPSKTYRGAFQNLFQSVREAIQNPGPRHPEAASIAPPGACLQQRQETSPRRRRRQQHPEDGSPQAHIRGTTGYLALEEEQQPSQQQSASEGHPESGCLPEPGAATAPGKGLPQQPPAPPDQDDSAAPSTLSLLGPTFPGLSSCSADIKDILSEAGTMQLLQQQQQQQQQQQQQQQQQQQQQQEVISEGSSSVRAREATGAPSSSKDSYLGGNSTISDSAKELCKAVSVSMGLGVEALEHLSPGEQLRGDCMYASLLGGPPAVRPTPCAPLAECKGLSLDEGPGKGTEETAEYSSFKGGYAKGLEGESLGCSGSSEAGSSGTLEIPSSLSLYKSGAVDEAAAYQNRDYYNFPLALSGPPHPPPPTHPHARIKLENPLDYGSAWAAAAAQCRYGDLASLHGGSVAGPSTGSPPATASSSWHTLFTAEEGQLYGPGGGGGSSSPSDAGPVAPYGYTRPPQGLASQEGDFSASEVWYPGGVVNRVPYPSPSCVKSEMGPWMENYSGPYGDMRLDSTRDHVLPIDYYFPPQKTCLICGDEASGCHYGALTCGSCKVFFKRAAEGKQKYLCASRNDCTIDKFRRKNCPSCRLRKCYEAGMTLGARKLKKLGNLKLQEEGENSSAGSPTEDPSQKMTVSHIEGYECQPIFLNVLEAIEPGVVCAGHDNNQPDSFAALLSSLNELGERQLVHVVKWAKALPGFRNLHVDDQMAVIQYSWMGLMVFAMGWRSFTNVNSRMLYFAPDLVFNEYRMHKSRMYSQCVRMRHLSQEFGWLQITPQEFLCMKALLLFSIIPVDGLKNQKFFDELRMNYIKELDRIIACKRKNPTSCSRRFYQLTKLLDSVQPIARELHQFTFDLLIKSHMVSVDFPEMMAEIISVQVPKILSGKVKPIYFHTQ
Description: Binding to rat prostate Androgen receptor compared to dihydrotestosterone. Conditions: Prostate gland.

The subject of test [4] is Rattus norvegicus. Description: Ovulation inhibitory activity in rats after 100 mg oral dose. The class given is functional.
Test [5] deals with T3, Androgen receptor (Rattus norvegicus). Briefly: Weight of prostate as anti-androgenic activity in rat after oral dose of 24+0.1 mg/day with testosterone propionate(0.1 mg/day). Conditions: Prostate gland. In kind it is functional.
Test [6] deals with T1, Progesterone receptor (Oryctolagus cuniculus). Briefly: Progestational activity on oral administration (30 mg) in rabbit. The class given is functional, organism-based.
The target in test [7] is T3, Androgen receptor (Rattus norvegicus). Particulars: Seminal vesicle.
Description: Weight of seminal vesicle as anti-androgenic activity in rat after oral dose of 96+0.1 mg/day with testosterone propionate(0.1 mg/day)
For test [8] the target is unchanged. Particulars: Prostate gland.
Description: Weight of prostate as anti-androgenic activity in rat after oral dose of 96+0.1 mg/day with testosterone propionate(0.1 mg/day)
For test [9], the target named is T1, Progesterone receptor (Oryctolagus cuniculus). Briefly: Progestational activity on oral administration (100 mg) in rabbit. In kind it is functional, organism-based.
Test [10] addresses T3, Androgen receptor (Rattus norvegicus). Conditions: Prostate gland. The source holds these as a separate data set.
Description: Weight of prostate as anti-androgenic activity in rat after oral dose of 48+0.1 mg/day with testosterone propionate(0.1 mg/day)
For test [11] the target is unchanged. Briefly: Weight of prostate as anti-androgenic activity in rat after oral dose of 12+0.1 mg/day with testosterone propionate(0.1 mg/day). The class given is functional. Conditions: Prostate gland.
The target is the same in test [12]. Briefly: Weight of seminal vesicle as anti-androgenic activity in rat after oral dose of 24+0.1 mg/day with testosterone propionate(0.1 mg/day). In kind it is functional.
The target in test [13] is T1, Progesterone receptor (Oryctolagus cuniculus). Briefly: Progestational activity on oral administration (300 mg) in rabbit. In kind it is functional, organism-based.
The subject of test [14] is Rattus norvegicus. Briefly: Ovulation inhibitory activity in rats after 30 mg oral dose. The class given is functional.
Test [15] concerns the target T3, Androgen receptor (Rattus norvegicus). Description: Weight of seminal vesicle as anti-androgenic activity in rat after oral dose of 12+0.1 mg/day with testosterone propionate(0.1 mg/day). The class given is functional.
Test [16] has the same target. Conditions: Seminal vesicle. The source holds these as a separate data set.
Description: Weight of seminal vesicle as anti-androgenic activity in rat after oral dose of 48+0.1 mg/day with testosterone propionate(0.1 mg/day)
Test [17] has the same target. Description: Anogenital distance in rats after 50 mg/animal oral dose in Fetal Feminization test (control = 2.30+/-0.16). The class given is functional.

Where only a bound is given, the exact number is not on record here.

For the molecule `CCOC(=O)[C@@H]1CC2=CC(=O)C=CC2(C)C2CCC3(C)C(C21)[C@@H]1C[C@@H]1C31CCC(=O)O1` (stereo partly specified), the Competition factor in test [1] was 85. The Relative potency in test [2] is less than 50.

`COC(=O)[C@@H]1CC2=CC(=O)C=CC2(C)C2CCC3(C)C(C21)[C@@H]1C[C@@H]1C31CCC(=O)O1` (stereo partly specified): the Relative potency in test [2] is less than 50.

`CCCOC(=O)[C@@H]1CC2=CC(=O)[C@@H]3C[C@@H]3C2(C)C2CCC3(C)C(C21)[C@@H]1C[C@@H]1C31CCC(=O)O1` (stereo partly specified): the Competition factor in [1] worked out at 19; in [3] it was 33. Further, the Relative potency in test [2] turned out to be 39.

As for `COC(=O)[C@@H]1CC2=CC(=O)[C@@H]3C[C@@H]3C2(C)C2CCC3(C)C(C21)[C@H]1C[C@H]1C31CCC(=O)O1` (stereo partly specified), the Competition factor in test [1] is 98; in test [3] it was 53. Further, the Relative potency in test [2] came out at 140.

As to `CCOC(=O)[C@@H]1CC2=CC(=O)CCC2(C)C2CCC3(C)C(C21)[C@@H]1C[C@@H]1C31CCC(=O)O1` (stereo partly specified), the Competition factor in [1] came out at 33; in test [3] it was 98. The Relative potency in [2] is less than 50.

Molecule `CC(=O)S[C@@H]1CC2=CC(=O)CC[C@]2(C)[C@H]2CC[C@@]3(C)[C@@H](CC[C@@]34CCC(=O)O4)[C@H]12` [SPIRONOLACTONE] registered an Inhibition in the test with Rattus norvegicus [4] of 100%.

For `CC(C)OC(=O)[C@@H]1CC2=CC(=O)[C@@H]3C[C@@H]3C2(C)C2CCC3(C)C(C21)[C@@H]1C[C@@H]1C31CCC(=O)O1` (stereo partly specified), the Competition factor in test [1] turned out to be 19; in [3] it was 40. Also, the Relative potency in test [2] was 140.

On to `CC(C)OC(=O)[C@@H]1CC2=CC(=O)CCC2(C)C2CCC3(C)C(C21)[C@@H]1C[C@@H]1C31CCC(=O)O1` (stereo partly specified), for which the Competition factor in test [1] came to 12; in test [3] it was 67. The Relative potency in test [2] is less than 50.

As to `COC(=O)[C@@H]1CC2=CC(=O)[C@@H]3C[C@@H]3C2(C)C2CCC3(C)C(C21)[C@@H]1C[C@@H]1C31CCC(=O)O1` (stereo partly specified), the Competition factor worked out at 92 in test [1] and 29 in test [3]. For the same molecule, the Relative potency in test [2] was 140.

On to `CCOC(=O)[C@@H]1CC2=CC(=O)[C@@H]3C[C@@H]3C2(C)C2CCC3(C)C(C21)[C@@H]1C[C@@H]1C31CCC(=O)O1` (stereo partly specified), for which the Competition factor in test [1] was 34; in [3] it was 28. Moreover, the Relative potency in [2] came out at 187.

Regarding `COC(=O)[C@@H]1CC2=CC(=O)CCC2(C)C2CCC3(C)C(C21)[C@H]1C[C@H]1C31CCC(=O)O1` (stereo partly specified), the Competition factor in test [1] is 10; in test [3], 121. Besides, the Relative potency in [2] is 50.

On to `COC(=O)[C@@H]1CC2=CC(=O)CCC2(C)C2CCC3(C)C(C21)[C@@H]1C[C@@H]1C31CCC(=O)O1` (stereo partly specified), for which the Inhibition with Rattus norvegicus [4] and in the test on Rattus norvegicus [14] was 0% in each case. Moreover, the Organ weight in test [5] stood at 33 mg; in test [7], 42 mg; in test [8], 30 mg; in test [10] it was 41 mg; in test [11], 38 mg; in [12], 37 mg. Moreover, the Organ weight is 44 mg in test [15] and 47 mg in test [16]. In addition, the Competition factor in test [1] is 25; in test [3], 112. Moreover, the McPhail index in test [6] was 1.4; in test [9] it was 1.8; in test [13] it was 1.8. In addition, the Relative potency in test [2] was found to be 217. Besides, the Anogenital distance in test [17] was 2 mm.

As for `COC(=O)[C@@H]1CC2=CC(=O)CCC2(C)C2CCC3(C)C(CCC34CCC(=O)O4)C21` (stereo partly specified), the Competition factor in test [1] was 130; in test [3], 142. Moreover, in test [2], the Relative potency is 104.

`CC(C)OC(=O)[C@@H]1CC2=CC(=O)C=CC2(C)C2CCC3(C)C(C21)[C@@H]1C[C@@H]1C31CCC(=O)O1` (stereo partly specified): the Competition factor came to 113 in test [1] and 266 in test [3]. The Relative potency in test [2] is less than 50.

The values above are taken from ChEMBL document CHEMBL1125151, “Aldosterone antagonists. 3. Synthesis and activities of steroidal 7 alpha-(alkoxycarbonyl)-15,16-methylene spirolactones” (1990).
